SMILES strings stand for the structures. Activity calls are given as the source filed them. No rule for the calls is given here. Starred links: 1 amine or outer side, 2 acyl side, 3 side chain; linkers in the order of their positions; H or OH if unused. Positions of bridges follow the written chain, without caps; N, C: chain ends. Non-standard residues stand in square brackets, D forms with d. Residues, ends and D or L forms follow the SMILES beside them. Chains are numbered I, II in the order given. Actinocin(9to1) = Cc1c2oc3c(C)ccc(C(=O)[*:1])c3nc-2c(C(=O)[*:2])c(N)c1=O; NMeV = CN[CH](C(=O)O)C(C)C; Sar = CNCC(=O)O

In the test the test system is B cell line, CD40 signaling inhibition reporter. Nature of the test: inhibitors of CD40 signaling, dose response, B cell lineage (AID 1259332).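 Also: cells stimulated with CD40 ligand tCD40L.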
As to `COc1cccc(NC(=O)N2CC(=O)N3[C@H](CO)[C@@H](c4ccc(C#CCC5CCCC5)cc4)[C@H]3C2)c1`, the AC50 was > 7 µM (inactive). In the case of `CC1CC(C)CC(C)C(O)C(C#N)=CC=CCC(C2CCCC2C(=O)O)OC(=O)CC(O)C(C)C1` (configuration not stated), the AC50 was less than 0.0005 µM. Then `Cc1c2oc3c(C)ccc(C(=O)OC(C)C4NC(=O)C(C(C)C)N(C)C(=O)CN(C)C(=O)C5CCCN5C(=O)C(C(C)C)NC4=O)c3nc-2c(C(=O)OC(C)C2NC(=O)C(C(C)C)N(C)C(=O)CN(C)C(=O)C3CCCN3C(=O)C(C(C)C)NC2=O)c(N)c1=O` (configuration not stated) (I: cyclo([Sar][NMeV]TVP) / II: cyclo([Sar][NMeV]TVP); linker I:3-II:3 via Actinocin(9to1); configuration not given here), with 0.0309 µM; and `CC(C)(C)CC(C)(C)c1ccc(OCCOCC[N+](C)(C)Cc2ccccc2)cc1`, with 1.62 µM.

For the molecule `CC(C)(C)OC(=O)CC(S(=O)(=O)c1ccccc1)S(=O)(=O)c1ccccc1`, the AC50 is 0.95 µM. Then `C[C@@H]1CN([C@@H](C)CO)C(=O)c2c(c3ccccc3n2C)-c2ccccc2CO[C@H]1CN(C)Cc1cccc(C(=O)Nc2ccccc2N)c1`, with > 20 µM (inactive); and `CC(=NNc1ccc2ccccc2n1)c1ccccc1O`, with 2.94 µM; and `CC1=CC2OC3CC4OC(=O)C=CC=CC(C(C)O)OCC(O)C5(C)OC5C(=O)OCC2(CC1O)C4(C)C31CO1` (configuration not stated), with 0.0375 µM. Then `CNC(=S)NN=C(C)CCCC(C)=NNC(=S)NC`, with 1.26 µM; and `CC(C)c1c(O)ccc2c1CCC1C(C)(C)CCC[C@]21C` (some centres not stated), with 5.44 µM; and `c1cc(-c2cnn3cc(-c4ccc(OCCN5CCCCC5)cc4)cnc23)ccn1`, with 2.7 µM. For `O=C1NC2C(O)C(O)C(O)C(O)C2c2cc3c(c(O)c21)OCO3` (configuration not stated), the AC50 was 0.155 µM. Regarding `CN1C(=O)/C(=N\OC(=O)c2cccc3ccccc23)c2ccccc21`, the AC50 is 1.21 µM. As to `COc1cccc(C#Cc2ccc([C@H]3[C@@H](C#N)N(C(=O)c4ccccn4)[C@@H]3CO)cc2)c1`, the AC50 was 5.81 µM. Then `c1ccc2nc(-c3nc4ccccc4o3)ccc2c1`, with 4.54 µM; and `O=C(COc1cccnc1[N+](=O)[O-])c1ccc(Cl)s1`, with 3.2 µM; and `C1CCC(C(CC2CCCCN2)C2CCCCC2)CC1` (configuration not stated), with 2.39 µM.

Consider `C[C@@H]1CN([C@@H](C)CO)C(=O)c2c(c3ccccc3n2C)-c2ccccc2CO[C@H]1CN(C)Cc1ccccc1`, for which the AC50 is 8.22 µM. Turning to `C[C@H](CO)N1C[C@H](C)[C@@H](CN(C)Cc2ccc(Oc3ccccc3)cc2)Oc2c(NC(=O)CCC(F)(F)F)cccc2C1=O`, the AC50 was 8.77 µM. Regarding `CNc1c2cccc(C)c2nc2c(C(=O)NCCN(C)C)cccc12`, the AC50 is 0.266 µM. Turning to `COc1ccc2cc(-c3cc(C(=O)O)c4ccccc4n3)ccc2c1`, the half-maximal activity concentration (AC50) was 6.11 µM.

Consider `CC(C)(C)CC(C)(C)c1ccc(O)c(Cc2ccc(Cl)cc2Cl)c1`, for which the AC50 is 7.11 µM.

For `O=C(C1CCOCC1)N1CC(=O)N2[C@H](C1)[C@@H](c1ccc(C#CCc3ccccc3)cc1)[C@@H]2CO`, the AC50 is 5.95 µM. As to `C[C@@H]1CCCCO[C@H](CN(C)Cc2ccc(C(F)(F)F)cc2)[C@@H](C)CN([C@@H](C)CO)C(=O)c2cc(NC(=O)Nc3cccc4ccccc34)ccc2O1`, the AC50 is > 20 µM (inactive).

Regarding `CC(=O)O[C@H]1C[C@H](O[C@H]2[C@@H](O)C[C@H](O[C@H]3[C@@H](O)C[C@H](O[C@H]4CC[C@@]5(C)C(CCC6C5C[C@@H](O)[C@]5(C)[C@@H](C7=CC(=O)OC7)CC[C@]65O)C4)O[C@@H]3C)O[C@@H]2C)O[C@H](C)[C@H]1O[C@@H]1O[C@H](CO)[C@@H](O)[C@H](O)[C@H]1O` (some centres not stated), the AC50 was 0.909 µM. Consider `C[C@H](CO)N1C[C@H](C)[C@@H](CN(C)Cc2cccc(C(F)(F)F)c2)OCc2ccccc2-c2c(n(C)c3ccccc23)C1=O`, for which the AC50 was > 20 µM (inactive). Take `C[C@H]1CN([C@@H](C)CO)C(=O)c2c(c3ccccc3n2C)-c2ccccc2CO[C@H]1CN(C)C(=O)Nc1cccc(C(F)(F)F)c1`: the AC50 is 8.34 µM. `Cc1ccc(-c2ccccc2[C@H]2[C@@H](C#N)N(c3ncc(-c4ccccc4)s3)[C@@H]2CO)cc1`: the AC50 is > 20 µM (inactive). As to `CC(=O)O[C@@H]1C[C@@]2(C)[C@H](c3ccoc3)C[C@H]3O[C@]32[C@]2(C)C(=O)C(=O)C3C(C)(C)C(=O)C=C[C@]3(C)C12` (some centres not stated), the AC50 is 1.22 µM. As for `NCCOc1ccc(C23CC4CC(CC(C4)C2)C3)cc1`, the AC50 is 5.74 µM. Consider `Cc1ccc(S(=O)(=O)N2CCCC2CNC(=O)c2ccc3c(c2)OCO3)cc1` (configuration not stated), for which the AC50 was 3.91 µM. For the molecule `CCN1C(=O)C(CC(=O)Nc2ccc(F)cc2)N(Cc2ccco2)C1=S` (configuration not stated), the AC50 is 5.03 µM.

Take `Cc1[nH]c2ccccc2c1C(c1ccccn1)N1CCC(C(N)=O)CC1` (configuration not stated): the AC50 was 9.34 µM. For the molecule `CS(=O)(=O)c1ccc(C(=O)OCC(=O)NC(=O)C2CCCCC2)cc1[N+](=O)[O-]`, the AC50 was > 20 µM (inactive). Then `O=C(C1CC1)N1C[C@@H]2N[C@H](C1)[C@@H]2c1ccc(-c2ccncc2)cc1`, with 5.72 µM.

In the case of `Nc1nc(=O)c2ccccc2s1`, the AC50 was 8.69 µM. Regarding `CC(=O)OC1C(=O)OCC23CCC4(C)OC4C2OC2CC(OC(=O)C=CC=CC(=O)OCCC1C)C3(C)C21CO1` (configuration not stated), the AC50 was 0.0056 µM.

On to `Cc1ccc(S(=O)(=O)C=CS(=O)(=O)c2ccc(C)cc2)cc1`, for which the AC50 was 0.996 µM. For the molecule `CC(C)CCCCCCCCCCCCC(=O)NCC(=O)NC1C(O)C(O)C(Nc2ncnc3nc[nH]c23)OC1C(O)CO` (configuration not stated), the AC50 is 0.0128 µM.

As for `Cc1ccccc1NC(=O)c1nc(S(C)(=O)=O)ncc1Cl`, the AC50 is 1.68 µM. For the molecule `CC1CC(C)C(=O)C(C(O)CC2CC(=O)NC(=O)C2)C1` (configuration not stated), the AC50 is 0.196 µM. Regarding `CCC1=C(CC2NCCc3ccccc32)CC2c3cc(OC)c(OC)cc3CCN2C1` (configuration not stated), the AC50 is 1.75 µM. Then `COc1ccc(S(=O)(=O)Nc2ccc3c(c2)C(=O)N([C@H](C)CO)C[C@H](C)[C@@H](CN(C)Cc2ccc(C(F)(F)F)cc2)OCCCC[C@@H](C)O3)cc1`, with 11.4 µM; and `Cc1cnc(NC(=O)c2ccc(OCC3CCCO3)cc2)s1` (configuration not stated), with 3.03 µM; and `CCN(CC)C(=O)c1ccc(NC(=O)Nc2ccccc2F)cc1`, with 2.35 µM. With `O=C(C1CCCC1)N1CC(=O)N2[C@@H](CO)[C@@H](c3ccc(C#CCc4ccccc4)cc3)[C@@H]2C1`, the AC50 was 1.95 µM. Turning to `O=C1C=CC(=O)c2c(O)c(N3CCN(CCOCCO)CC3)c(Br)c(O)c21`, the AC50 is 1.91 µM. Then `Cc1cccc(-c2nc3cc(NC(=O)C4CCCO4)ccc3o2)c1` (configuration not stated), with > 20 µM (inactive); and `C[C@H](CO)N1C[C@H](C)[C@H](CN(C)C(=O)Nc2cccc(Cl)c2Cl)OCc2ccccc2-c2c(n(C)c3ccccc23)C1=O`, with 5.24 µM. Then `CCc1csc(N2[C@H](C#N)[C@H](c3ccc(C#Cc4ccc(F)cc4)cc3)[C@H]2CO)n1`, with > 20 µM (inactive); and `N#C[C@H]1[C@H](c2ccc(C#Cc3ccccc3F)cc2)[C@@H](CO)N1C(=O)C1CC1`, with > 20 µM (inactive). Take `Cn1cnc([N+](=O)[O-])c1S(=O)(=O)Oc1cccc2ccccc12`: the half-maximal activity concentration (AC50) was 0.368 µM. For the molecule `Cc1ccsc1C(=O)OCC(=O)c1cc(C)n(CC2CCCO2)c1C` (configuration not stated), the AC50 is 0.124 µM. Then `CC1CNCCN1S(=O)(=O)c1cccc2cnccc12` (configuration not stated), with 9.01 µM; and `C[C@@H]1CCCCO[C@H](CN(C)CC2CCCCC2)[C@H](C)CN([C@@H](C)CO)C(=O)c2cc(NC(=O)Nc3ccc(C(F)(F)F)cc3)ccc2O1`, with 8.6 µM.

On to `CCN(CC)c1ccc(C(NC(=O)C(C)C)c2ccc3cccnc3c2O)cc1` (configuration not stated), for which the AC50 is > 20 µM (inactive). For `CN(C)C(=S)SSC(=S)N(C)C`, the AC50 is 0.152 µM. Consider `CCCC(=O)NC1=C(Cl)C(=O)c2ccccc2C1=O`, for which the AC50 was 0.935 µM. Take `C[C@@H]1O[C@@H](O[C@H]2C[C@@H](O)[C@]3(CO)C4C(CC[C@]3(O)C2)[C@@]2(O)CC[C@H](C3=CC(=O)OC3)[C@@]2(C)C[C@H]4O)[C@H](O)[C@H](O)[C@H]1O` (some centres not stated): the AC50 was 0.294 µM. Then `Cc1ccc(S(=O)(=O)N[C@@H](Cc2ccccc2)C(=O)CCl)cc1`, with 2.99 µM. For the molecule `CCCn1c(NC(=O)c2cccc(S(=O)(=O)N3CCCC3)c2)nc2ccccc21`, the AC50 was 2.02 µM. In the case of `CCN1/C(=C/c2sc(-c3ccccc3C)c[n+]2C)Sc2ccccc21`, the AC50 was 1.91 µM. Then `O=C(COC(=O)c1ccccc1C(=O)c1ccc(Cl)c([N+](=O)[O-])c1)NC1CC1`, with 1.62 µM; and `O=S(=O)(/C(=C\c1ccc(C(F)(F)F)cc1)c1nc2ccccc2[nH]1)c1ccccc1`, with 2.26 µM; and `COc1cccc(S(=O)(=O)N(C)C[C@@H]2OCc3ccccc3-c3c(n(C)c4ccccc34)C(=O)N([C@H](C)CO)C[C@H]2C)c1`, with > 20 µM (inactive). For `N#C[C@@H]1[C@@H](c2ccccc2-c2ccc(F)cc2)[C@H](CO)N1C(=O)NC1CCCCC1`, the AC50 was > 22 µM (inactive). Then `O=C(C[C@@H]1CC[C@H]2[C@@H](COC[C@@H](O)CN2Cc2cc(F)ccc2F)O1)NCc1ccc(Oc2ccccc2)cc1`, with > 20 µM (inactive); and `N#C[C@@H]1[C@H](c2ccc(C#CC3CCCCC3)cc2)[C@@H](CO)N1S(=O)(=O)c1ccccc1`, with 2.28 µM; and `Cc1nc(C)c(C(=O)Nc2ncc([N+](=O)[O-])s2)o1`, with 9.08 µM. As to `Cc1cc(C(=O)COC(=O)c2ccco2)c(C)n1Cc1ccco1`, the AC50 was 0.11 µM.

As to `Oc1c(Cl)cc(Cl)c(Cl)c1Cc1c(O)c(Cl)cc(Cl)c1Cl`, the AC50 was 3.6 µM. Regarding `C[C@H]1CN([C@@H](C)CO)C(=O)c2c(c3ccccc3n2C)-c2ccccc2CO[C@H]1CN(C)C(=O)Nc1ccccc1C(F)(F)F`, the AC50 was > 20 µM (inactive). As for `C[C@H]1CN([C@@H](C)CO)C(=O)Cc2cc(NC(=O)Cc3cn(C)c4ccccc34)ccc2O[C@H]1CN(C)Cc1ccc(C(F)(F)F)cc1`, the AC50 is > 20 µM (inactive). Take `CC(C)Cc1ccc(C(C)CC2=CCC(CN(C)C)C2=O)cc1` (configuration not stated): the AC50 was 3.99 µM.

Turning to `CCOC(=O)c1cc2c(ccn2C)n1Cc1ccc(C#N)cc1`, the AC50 is > 20 µM (inactive). On to `O=C(Nc1cccc(N2C(=O)C=CC2=O)c1)c1cccs1`, for which the AC50 is 1.68 µM. As for `O=C(C1CCC1)N1CCc2cc(S(=O)(=O)N3CCCCC3)ccc21`, the AC50 was > 20 µM (inactive).

A word on the AC50: it is the concentration at which the activity in the assay is half-maximal.
